Reference: ChEMBL document CHEMBL2417543, “Potential neuroprotective flavonoid-based inhibitors of CDK5/p25 from Rhus parviflora” (Bioorg Med Chem Lett, 2013)

Columns and labels:
Assay type in all cases: protein-complex assay
[1] = target: T1, Cyclin-dependent kinase 5/CDK5 activator 1 (Homo sapiens, UniProt Q00535); test: Inhibition of CDK5/p25 (unknown origin)-mediated incorporation of gamma33P into substrate after 20 mins by scintillation counting analysis in presence of 33P-ATP
[2] = target: T2, Cyclin-dependent kinase 5/CDK5 activator 1 (Homo sapiens) (UniProt Q00535+Q15078); test: Inhibition of CDK5/p25 (unknown origin)-mediated incorporation of gamma33P into substrate assessed as change in enzyme activity at 0.005 uM after 20 mins by scintillation counting analysis in presence of 33P-ATP relative to negative control; set-up: scale not given: the % may be the effect or the level left
[3] = target: T2, Cyclin-dependent kinase 5/CDK5 activator 1 (Homo sapiens); test: Inhibition of CDK5/p25 (unknown origin)-mediated incorporation of gamma33P into substrate assessed as change in enzyme activity at 5 uM after 20 mins by scintillation counting analysis in presence of 33P-ATP relative to negative control; set-up: scale not given: the % may be the effect or the level left
[4] = target: T1, Cyclin-dependent kinase 5/CDK5 activator 1; test: Inhibition of CDK5/p25 (unknown origin) after 30 mins by SDS-PAGE analysis
[5] = target: T2, Cyclin-dependent kinase 5/CDK5 activator 1 (Homo sapiens); test: Inhibition of CDK5/p25 (unknown origin)-mediated incorporation of gamma33P into substrate assessed as change in enzyme activity at 0.5 uM after 20 mins by scintillation counting analysis in presence of 33P-ATP relative to negative control; set-up: scale not given: the % may be the effect or the level left
[6] = target: T2, Cyclin-dependent kinase 5/CDK5 activator 1 (Homo sapiens); test: Inhibition of CDK5/p25 (unknown origin)-mediated incorporation of gamma33P into substrate assessed as change in enzyme activity at 0.05 uM after 20 mins by scintillation counting analysis in presence of 33P-ATP relative to negative control; set-up: scale not given: the % may be the effect or the level left
[7] = target: T2, Cyclin-dependent kinase 5/CDK5 activator 1 (Homo sapiens); test: Inhibition of CDK5/p25 (unknown origin)-mediated incorporation of gamma33P into substrate assessed as change in enzyme activity at 50 uM after 20 mins by scintillation counting analysis in presence of 33P-ATP relative to negative control; set-up: scale not given: the % may be the effect or the level left

T1 sequence (Q00535 whole entry): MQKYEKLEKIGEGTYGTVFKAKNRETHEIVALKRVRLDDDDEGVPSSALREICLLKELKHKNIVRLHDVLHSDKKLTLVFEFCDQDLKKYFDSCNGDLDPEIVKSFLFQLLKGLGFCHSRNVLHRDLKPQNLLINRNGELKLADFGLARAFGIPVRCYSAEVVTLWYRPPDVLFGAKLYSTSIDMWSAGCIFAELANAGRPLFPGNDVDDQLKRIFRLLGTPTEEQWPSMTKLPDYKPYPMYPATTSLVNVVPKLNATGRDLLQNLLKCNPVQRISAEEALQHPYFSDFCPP
T1 sequence (Q15078 whole entry, further chain): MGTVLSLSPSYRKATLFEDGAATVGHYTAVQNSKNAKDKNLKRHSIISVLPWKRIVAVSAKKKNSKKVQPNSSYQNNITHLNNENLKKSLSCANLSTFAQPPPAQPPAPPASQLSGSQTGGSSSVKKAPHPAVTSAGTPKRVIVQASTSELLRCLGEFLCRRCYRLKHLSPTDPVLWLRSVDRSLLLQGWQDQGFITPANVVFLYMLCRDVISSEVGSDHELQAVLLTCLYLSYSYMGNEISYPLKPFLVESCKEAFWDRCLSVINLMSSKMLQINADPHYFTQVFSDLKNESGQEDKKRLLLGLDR
T2 sequence (Q00535 whole entry): as the sequence (Q00535 whole entry) above
T2 sequence (Q15078 99-307 partner limits assumed): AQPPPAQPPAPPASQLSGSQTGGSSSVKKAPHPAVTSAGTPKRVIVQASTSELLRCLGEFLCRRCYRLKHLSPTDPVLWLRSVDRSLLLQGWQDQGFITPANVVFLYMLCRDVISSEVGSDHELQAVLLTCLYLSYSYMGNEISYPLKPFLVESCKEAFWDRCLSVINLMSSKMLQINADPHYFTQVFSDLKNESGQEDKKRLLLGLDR

**Q.** What does the source list for `O=C1/C(=C/c2ccc(O)c(O)c2)Oc2cc(O[C@@H]3O[C@H](CO)[C@@H](O)[C@H](O)[C@H]3O)cc(O)c21`?
**A.** IC50 [1]: 24.3 µM; Activity [2]: -2%; Activity [3]: -20%; IC50 [4]: 22.3 µM; Activity [5]: -5%; Activity [6]: -4%; Activity [7]: -65%

**Q.** `O=C1/C(=C/c2ccc(O)c(O)c2)Oc2cc(O)cc(O)c21` [AUREUSIDIN] was tested. Which IC50 [1] did it give?
**A.** The IC50 was 4.81 µM.

**Q.** What about the Activity [2] of the same molecule?
**A.** The Activity was 0%.

**Q.** What about the Activity [3] of the same molecule?
**A.** Its Activity is -47%.

**Q.** What about the IC50 [4] of the same molecule?
**A.** Its IC50 is 3.5 µM.

**Q.** And the Activity [5]?
**A.** The Activity was -20%.

**Q.** What about the Activity [6] of the same molecule?
**A.** Its Activity is -2%.

**Q.** What about the Activity [7] of the same molecule?
**A.** Its Activity is -88%.

**Q.** `O=c1c(O[C@@H]2O[C@H](CO)[C@H](O)[C@H](O)[C@H]2O)c(-c2ccc(O)c(O)c2)oc2cc(O)cc(O)c12` [HYPEROSIDE] was tested. Which IC50 [4] did it give?
**A.** The IC50 was 10.3 µM.

**Q.** `O=c1cc(-c2ccc(O)cc2)oc2c(-c3c(O)cc(O)c4c(=O)cc(-c5ccc(O)cc5)oc34)c(O)cc(O)c12` [CUPRESSUFLAVONE] was tested. Which IC50 [4] did it give?
**A.** The IC50 was 9.29 µM.

**Q.** How did the IC50 [4] turn out when `O=C1/C(=C/c2ccc(O)c(O)c2)Oc2cc(O)ccc21` [SULFURETIN] was run?
**A.** Its IC50 is 37 µM.

**Q.** For `O=C1c2c(O[C@@H]3O[C@H](CO)[C@@H](O)[C@H](O)[C@H]3O)cc(O)cc2OC1(O)Cc1ccc(O)cc1` (some centres undefined), which IC50 [1] is on record?
**A.** The IC50 was greater than 50 µM.

**Q.** And the Activity [2]?
**A.** The Activity was -3%.

**Q.** And the Activity [3]?
**A.** Its Activity is -7%.

**Q.** And the IC50 [4]?
**A.** The IC50 was 44.4 µM.

**Q.** What about the Activity [5] of the same molecule?
**A.** The Activity was 2%.

**Q.** And the Activity [6]?
**A.** The Activity was 1%.

**Q.** And the Activity [7]?
**A.** The Activity was -15%.
